Experimental data: patent US8471005B2 (Cephalon, Inc., priority 2008, dated 2013)
Read-outs that look alike come from different tables or passages of the source.

Tests used:
JAK2 = target: T1, JAK2 (Homo sapiens, UniProt O60674); test: Recombinant Human JAK2 Kinase Assay (TRF); assay type: biochemical; conditions: read-out: JAK2 Potency
T1 construct: host or cells: baculovirus expression system
In short: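 Baculovirus-expressed JAK2 (15 ng/ml) phosphorylated a biotinylated 15-mer peptide captured on Neutravidin, in 20 mM HEPES pH 7.2, 0.2 μM ATP, 1 mM MnCl2, 0.1% BSA, 2.5% DMSO final, 20 min at room temperature. Phosphoproduct detected by time-resolved fluorescence with Eu-N1-labelled PY100 antibody.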

ALK = target: T2, ALK (Homo sapiens, UniProt Q9UM73); test: ALK Kinase Assay (ELISA/TRF, PLC-γ substrate); assay type: biochemical; conditions: read-out: ALK Potency
T2 construct: host or cells: baculovirus expression system
T2 sequence (Q9UM73 19-1620): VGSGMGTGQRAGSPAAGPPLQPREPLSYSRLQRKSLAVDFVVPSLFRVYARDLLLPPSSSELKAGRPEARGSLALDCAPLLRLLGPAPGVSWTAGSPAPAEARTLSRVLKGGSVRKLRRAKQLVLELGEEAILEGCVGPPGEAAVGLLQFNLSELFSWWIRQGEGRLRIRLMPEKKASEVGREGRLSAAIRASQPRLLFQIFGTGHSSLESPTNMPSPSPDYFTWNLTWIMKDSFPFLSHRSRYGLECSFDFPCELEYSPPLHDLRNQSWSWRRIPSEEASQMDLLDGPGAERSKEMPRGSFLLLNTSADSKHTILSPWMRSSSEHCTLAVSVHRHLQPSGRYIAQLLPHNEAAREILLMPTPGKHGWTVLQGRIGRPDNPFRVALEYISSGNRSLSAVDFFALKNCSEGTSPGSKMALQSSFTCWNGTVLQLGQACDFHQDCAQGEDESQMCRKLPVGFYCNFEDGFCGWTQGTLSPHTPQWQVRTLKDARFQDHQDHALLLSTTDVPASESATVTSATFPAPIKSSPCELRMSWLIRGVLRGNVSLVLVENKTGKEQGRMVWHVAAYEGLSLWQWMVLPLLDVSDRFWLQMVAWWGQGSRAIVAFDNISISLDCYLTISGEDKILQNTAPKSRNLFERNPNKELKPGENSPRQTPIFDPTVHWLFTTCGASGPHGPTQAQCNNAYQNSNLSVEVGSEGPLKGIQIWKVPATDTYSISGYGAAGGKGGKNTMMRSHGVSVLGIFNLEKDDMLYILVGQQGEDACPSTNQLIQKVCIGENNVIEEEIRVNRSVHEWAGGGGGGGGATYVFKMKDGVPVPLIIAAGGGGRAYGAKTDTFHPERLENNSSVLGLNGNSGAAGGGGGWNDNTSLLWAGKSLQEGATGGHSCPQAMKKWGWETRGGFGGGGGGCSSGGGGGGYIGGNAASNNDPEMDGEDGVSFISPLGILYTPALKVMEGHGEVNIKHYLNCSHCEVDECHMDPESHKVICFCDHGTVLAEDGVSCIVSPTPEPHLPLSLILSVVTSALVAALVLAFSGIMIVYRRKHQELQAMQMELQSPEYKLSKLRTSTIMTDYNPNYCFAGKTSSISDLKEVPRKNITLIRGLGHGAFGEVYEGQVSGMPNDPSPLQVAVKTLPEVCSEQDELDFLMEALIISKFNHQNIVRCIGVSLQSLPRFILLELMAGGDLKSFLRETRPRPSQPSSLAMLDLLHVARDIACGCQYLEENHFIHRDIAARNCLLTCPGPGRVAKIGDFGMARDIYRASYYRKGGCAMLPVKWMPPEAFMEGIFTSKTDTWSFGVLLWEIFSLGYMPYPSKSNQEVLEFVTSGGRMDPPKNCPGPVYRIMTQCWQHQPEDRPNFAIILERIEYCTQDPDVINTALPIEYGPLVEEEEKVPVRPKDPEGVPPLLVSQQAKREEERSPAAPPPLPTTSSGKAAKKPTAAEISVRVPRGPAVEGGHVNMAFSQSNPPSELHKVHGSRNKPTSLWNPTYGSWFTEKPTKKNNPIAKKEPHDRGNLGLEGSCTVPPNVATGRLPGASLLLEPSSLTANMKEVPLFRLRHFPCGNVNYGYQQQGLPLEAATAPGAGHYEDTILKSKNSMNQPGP
In short: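 First, plates are coated with substrate (phospholipase C-γ, 10 μg/mL, TBS). Next, 30 ng/ml ALK initiates phosphorylation for 15 min at 37° C. Then Eu-N1 PT66 antibody is added for detection, and a nonlinear dose-response fit of percent inhibition yields IC50.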

[1] = JAK2 kinase inhibition, 0.2 μM ATP
[2] = ALK kinase inhibition, 1 μM ATP

T1 sequence (O60674 whole entry): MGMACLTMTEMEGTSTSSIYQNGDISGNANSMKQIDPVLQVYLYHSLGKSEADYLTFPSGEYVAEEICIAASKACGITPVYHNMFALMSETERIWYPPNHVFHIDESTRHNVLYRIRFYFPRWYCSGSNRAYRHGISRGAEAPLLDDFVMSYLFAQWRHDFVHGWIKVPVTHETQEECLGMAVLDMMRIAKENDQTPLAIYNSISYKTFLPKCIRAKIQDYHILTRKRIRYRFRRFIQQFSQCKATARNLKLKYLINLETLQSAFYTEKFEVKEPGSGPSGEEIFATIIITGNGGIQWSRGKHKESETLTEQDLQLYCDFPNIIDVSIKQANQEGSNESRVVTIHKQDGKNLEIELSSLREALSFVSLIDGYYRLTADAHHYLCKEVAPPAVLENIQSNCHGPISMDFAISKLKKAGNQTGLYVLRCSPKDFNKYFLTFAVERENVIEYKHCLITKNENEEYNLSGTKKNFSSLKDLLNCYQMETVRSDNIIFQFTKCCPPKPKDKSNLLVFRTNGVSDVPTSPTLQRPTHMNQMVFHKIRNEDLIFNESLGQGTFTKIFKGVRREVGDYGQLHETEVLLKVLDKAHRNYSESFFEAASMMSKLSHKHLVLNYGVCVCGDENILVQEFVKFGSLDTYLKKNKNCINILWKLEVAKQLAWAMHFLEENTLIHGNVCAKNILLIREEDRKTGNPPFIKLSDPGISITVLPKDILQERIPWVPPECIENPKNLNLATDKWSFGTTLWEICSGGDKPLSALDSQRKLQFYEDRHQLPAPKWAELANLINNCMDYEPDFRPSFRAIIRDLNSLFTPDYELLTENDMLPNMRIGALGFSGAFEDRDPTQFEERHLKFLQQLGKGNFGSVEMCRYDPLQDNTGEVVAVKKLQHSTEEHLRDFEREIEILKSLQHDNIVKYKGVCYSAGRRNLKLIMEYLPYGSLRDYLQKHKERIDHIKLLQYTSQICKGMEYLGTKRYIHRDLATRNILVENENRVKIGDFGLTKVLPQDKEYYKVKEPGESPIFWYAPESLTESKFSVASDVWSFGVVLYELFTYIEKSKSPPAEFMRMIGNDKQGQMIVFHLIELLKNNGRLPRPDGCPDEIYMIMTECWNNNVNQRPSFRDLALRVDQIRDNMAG

Row | IC50 (JAK2; JAK2 Kinase Inhibition) | IC50 (ALK; ALK Kinase Inhibition) | IC50 (JAK2; [1]) | IC50 (ALK; [2]) | Molecule
1 | < 100 nM | < 100 nM |  |  | C[C@H](O)CN1CCC(c2ccc(Nc3ncc4ccc(-c5ccc(S(C)(=O)=O)cc5)n4n3)cc2)CC1 [Example 1432, (S)-1-(4-{4-[7-(4-Methanesulfonyl-phenyl)-pyrrolo[2,1-f][1,2,4]triazin-2-ylamino]-phenyl}-piperidin-1-yl)-propan-2-ol]
2 |  |  | 100 to 1000 nM | < 100 nM | COc1cc(C2=CCN(CC(N)=O)CC2)ccc1Nc1ncc2ccc(-c3ccccc3OC)n2n1 [Example 1274, 2-(4-{3-Methoxy-4-[7-(2-methoxy-phenyl)-pyrrolo[2,1-f][1,2,4]triazin-2-ylamino]-phenyl}-3,6-dihydro-2H-pyridin-1-yl)-acetamide]
3 |  |  | < 100 nM | > 10000 nM | c1cncc(-c2ccc3cnc(Nc4ccn(CCN5CCOCC5)n4)nn23)c1 [Example 1184, [1-(2-Morpholin-4-yl-ethyl)-1H-pyrazol-3-yl]-(7-pyridin-3-yl-pyrrolo[2,1-f][1,2,4]triazin-2-yl)-amine]
4 | < 100 nM | 1000 to 10000 nM |  |  | CC(=O)N1CCc2ccc(Nc3ncc4ccc(-c5cccc(NS(C)(=O)=O)c5)n4n3)cc21 [Example 1367, N-{3-[2-(1-Acetyl-2,3-dihydro-1H-indol-6-ylamino)-pyrrolo[2,1-f][1,2,4]triazin-7-yl]-phenyl}-methanesulfonamide]
5 | < 100 nM | 100 to 1000 nM |  |  | COc1ncccc1-c1ccc2cnc(Nc3ccc4c(c3)CCN(CC(=O)N(C)C)CC4)nn12 [Example 1572]
6 |  |  | < 100 nM | 100 to 1000 nM | CN(c1ccccc1-c1ccc2cnc(Nc3ccc4cn(CCN5CCOCC5)nc4c3)nn12)S(C)(=O)=O [Example 1342, N-Methyl-N-(2-{2-[2-(2-morpholin-4-yl-ethyl)-2H-indazol-6-ylamino]-pyrrolo[2,1-f][1,2,4]triazin-7-yl}-phenyl)-methanesulfonamide]
7 |  |  | < 100 nM | < 100 nM | OC[C@@H](O)CN1CCC(c2ccc(Nc3ncc4ccc(-c5cccc(Cl)c5)n4n3)cc2)CC1 [Example 1130, (S)-3-(4-{4-[7-(3-Chloro-phenyl)-pyrrolo[2,1-f][1,2,4]triazin-2-ylamino]-phenyl}-piperidin-1-yl)-propane-1,2-diol]
8 |  |  | < 100 nM | < 100 nM | CN1CCCC1COc1cccc(Nc2ncc3ccc(-c4cccc(S(=O)(=O)NC(C)(C)C)c4)n3n2)c1 (centres unmarked) [Example 1005, N-tert-Butyl-3-{2-[3-(1-methyl-pyrrolidin-2-ylmethoxy)-phenylamino]-pyrrolo[2,1-f][1,2,4]triazin-7-yl}-benzenesulfonamide]
9 |  |  | < 100 nM | 100 to 1000 nM | CC(C)(C)NS(=O)(=O)c1cccc(-c2ccc3cnc(Nc4ccc5cn(CCN6CCOCC6)nc5c4)nn23)c1 [Example 1344, N-tert-Butyl-3-{2-[2-(2-morpholin-4-yl-ethyl)-2H-indazol-6-ylamino]-pyrrolo[2,1-f][1,2,4]triazin-7-yl}-benzenesulfonamide]
10 |  |  | < 100 nM | < 100 nM | CN1CCN(c2ccc(Nc3ncc4ccc(-c5cnc6ccccc6c5)n4n3)cc2)CC1 [Example 1037, [4-(4-Methyl-piperazin-1-yl)-phenyl]-(7-quinolin-3-yl-pyrrolo[2,1-f][1,2,4]triazin-2-yl)-amine]
11 |  |  | < 100 nM | > 10000 nM | COc1ccc(-c2ccc3cnc(Nc4ccc5c(c4)N(C)CCC5)nn23)cn1 [Example 980, [7-(6-Methoxy-pyridin-3-yl)-pyrrolo[2,1-f][1,2,4]triazin-2-yl]-(1-methyl-1,2,3,4-tetrahydro-quinolin-7-yl)-amine]
12 |  |  | < 100 nM | 1000 to 10000 nM | CNC(=O)c1cccc(Nc2ncc3ccc(-c4cnn(C)c4)n3n2)c1 [Example 965, N-Methyl-3-[7-(1-methyl-1H-pyrazol-4-yl)-pyrrolo[2,1-f][1,2,4]triazin-2-ylamino]-benzamide]
13 | < 100 nM | 100 to 1000 nM |  |  | COc1cncc(-c2ccc3cnc(Nc4ccc5c(c4)CCN(CC(=O)N(C)C)CC5)nn23)c1 [Example 1575]
14 |  |  | < 100 nM | 1000 to 10000 nM | CC(=O)Nc1cccc(Nc2ncc3ccc(-c4cccc(S(=O)(=O)N5CC[C@H](O)C5)c4)n3n2)c1 [Example 884, N-(3-{7-[3-((S)-3-Hydroxy-pyrrolidine-1-sulfonyl)-phenyl]-pyrrolo[2,1-f][1,2,4]triazin-2-ylamino}-phenyl)-acetamide]
15 |  |  | 100 to 1000 nM | < 100 nM | COc1cc(CN2CCN(C(=O)CN)CC2)ccc1Nc1ncc2ccc(-c3ccccc3OC)n2n1 [Example 1244, 2-Amino-1-(4-{3-methoxy-4-[7-(2-methoxy-phenyl)-pyrrolo[2,1-f][1,2,4]triazin-2-ylamino]-benzyl}-piperazin-1-yl)-ethanone]
16 |  |  | < 100 nM | 100 to 1000 nM | CN1CCN(c2ccc(Nc3ncc4ccc(NCc5cccnc5)n4n3)cc2)CC1 [Example 1164, N(2)-[4-(4-Methyl-piperazin-1-yl)-phenyl]-N(7)-pyridin-3-ylmethyl-pyrrolo[2,1-f][1,2,4]triazine-2,7-diamine]
17 |  |  | 100 to 1000 nM | < 100 nM | COc1cc(C2CCN(C[C@@H](C)O)CC2)ccc1Nc1ncc2ccc(-c3ccccc3OC)n2n1 [Example 787, (R)-1-(4-{3-Methoxy-4-[7-(2-methoxy-phenyl)-pyrrolo[2,1-f][1,2,4]triazin-2-ylamino]-phenyl}-piperidin-1-yl)-propan-2-ol]

The remaining lines, values behind:

Row | Molecule | IC50 (JAK2; JAK2 Kinase Inhibition) | IC50 (ALK; ALK Kinase Inhibition) | IC50 (JAK2; [1]) | IC50 (ALK; [2])
18 | COc1ccc(Cl)cc1-c1ccc2cnc(Nc3cc(OC)c(OC)c(OC)c3)nn12 [Example 141, [7-(5-Chloro-2-methoxy-phenyl)-pyrrolo[2,1-f][1,2,4]triazin-2-yl]-(3,4,5-trimethoxy-phenyl)-amine] | < 100 nM | 100 to 1000 nM |  | 
19 | CN1CCC(c2ccc(Nc3ncc4ccc(-c5cccc(N(C)C)c5)n4n3)cc2)CC1 [Example 662, [7-(3-Dimethylamino-phenyl)-pyrrolo[2,1-f][1,2,4]triazin-2-yl]-[4-(1-methyl-piperidin-4-yl)-phenyl]-amine] |  |  | < 100 nM | < 100 nM
20 | 3-(2-{2-[3-(2-Methoxy-1-methyl-ethoxy)-phenylamino]-pyrrolo[2,1-f][1,2,4]triazin-7-yl}-pyrrol-1-yl)-propionitrile [Example 1295] |  |  | 100 to 1000 nM | > 10000 nM
21 | C[C@H](O)CN1CCN(c2cccc(Nc3ncc4ccc(-c5cccc(Cl)c5)n4n3)c2)CC1 [Example 212, (S)-1-(4-{3-[7-(3-Chloro-phenyl)-pyrrolo[2,1-f][1,2,4]triazin-2-ylamino]-phenyl}-piperazin-1-yl)-propan-2-ol] | < 100 nM | < 100 nM |  | 
22 | N-{2-[2-(3,3-Dimethyl-2-oxo-2,3-dihydro-1H-indol-6-ylmethyl)-pyrrolo[2,1-f][1,2,4]triazin-7-yl]-phenyl}-N-methyl-methanesulfonamide [Example 661] |  |  | < 100 nM | 100 to 1000 nM
23 | COc1ccccc1-c1ccc2cnc(Nc3ccc4c(c3)N(C)CCO4)nn12 [Example 645, [7-(2-Methoxy-phenyl)-pyrrolo[2,1-f][1,2,4]triazin-2-yl]-(4-methyl-3,4-dihydro-2H-benzo[1,4]oxazin-6-yl)-amine] |  |  | < 100 nM | 100 to 1000 nM
24 | CS(=O)(=O)c1cccc(-c2ccc3cnc(Nc4ccc(N5CCN(CCO)CC5)cc4)nn23)c1 [Example 95, 2-(4-{4-[7-(3-Methanesulfonyl-phenyl)-pyrrolo[2,1-f][1,2,4]triazin-2-ylamino]-phenyl}-piperazin-1-yl)-ethanol] | < 100 nM | 100 to 1000 nM |  | 
25 | CN1CCN(c2ccc(Nc3ncc4c(Br)cc(Br)n4n3)cc2)CC1 [Example 84, (5,7-Dibromo-pyrrolo[2,1-f][1,2,4]triazin-2-yl)-[4-(4-methyl-piperazin-1-yl)-phenyl]-amine] | < 100 nM | 1000 to 10000 nM |  | 
26 | N-{2-[2-(4-{4-[(2-Hydroxy-ethyl)-methyl-amino]-piperidin-1-yl}-2-ethoxy-phenylamino)-pyrrolo[2,1-f][1,2,4]triazin-7-yl]-phenyl}-N-methyl-methanesulfonamide [Example 795] |  |  | 100 to 1000 nM | < 100 nM
27 | CN1CCN(Cc2ccc(Nc3ncc4ccc(-c5ccc(S(C)(=O)=O)cc5)n4n3)cc2)CC1 [Example 355, [7-(4-Methanesulfonyl-phenyl)-pyrrolo[2,1-f][1,2,4]triazin-2-yl]-[4-(4-methyl-piperazin-1-ylmethyl)-phenyl]-amine] | < 100 nM | 1000 to 10000 nM |  | 
28 | CC(=O)Nc1cc(Nc2ncc3ccc(-c4ccc(S(C)(=O)=O)cc4)n3n2)ccc1C(C)(C)C [Example 326, N-{2-tert-Butyl-5-[7-(4-methanesulfonyl-phenyl)-pyrrolo[2,1-f][1,2,4]triazin-2-ylamino]-phenyl}-acetamide] | < 100 nM | > 10000 nM |  | 
29 | O=S(=O)(NC1CC1)c1cccc(-c2ccc3cnc(Nc4ccc(N5CCOCC5)cc4)nn23)c1 [Example 356, N-Cyclopropyl-3-[2-(4-morpholin-4-yl-phenylamino)-pyrrolo[2,1-f][1,2,4]triazin-7-yl]-benzenesulfonamide] | < 100 nM | 100 to 1000 nM |  | 
30 | Cc1cc(Nc2ncc3ccc(-c4ccccc4N(C)S(C)(=O)=O)n3n2)cc2oc(=O)[nH]c12 [Example 628, N-Methyl-N-{2-[2-(4-methyl-2-oxo-2,3-dihydrobenzooxazol-6-ylamino)-pyrrolo[2,1-f][1,2,4]triazin-7-yl]phenyl}methanesulfonamide] |  |  | < 100 nM | 100 to 1000 nM
31 | COc1cc2c(cc1Nc1ncc3ccc(-c4cccc(S(=O)(=O)NC(C)(C)C)c4)n3n1)CCN(C[C@@H](C)O)CC2 [Example 700] |  |  | 100 to 1000 nM | < 100 nM
